Legend:
[1] = system: insulin-induced AKT phosphorylation; assay: Western blot of insulin signaling (AKT phosphorylation) in 3T3-L1 cells; format: cell-based; conditions: insulin 20 nM; for insulin-induced AKT phosphorylation / inhibitory effects of tryptamine and phenethylamine on insulin-stimulated AKT phosphorylation: 3T3-L1 cells; for insulin-induced AKT phosphorylation: precursors and metabolites at 100 μM; for inhibitory effects of tryptamine and phenethylamine on insulin-stimulated AKT phosphorylation: tryptamine or phenethylamine 25 μM, inhibitor 20 μM; for insulin signaling: 3T3-L1 adipocytes, 25 μM
Method: (§1) For the glucose uptake assay, 3T3-L1 cells were serum- and glucose-starved for 3 hours and then incubated with glucose, FBS, insulin and tryptamine for 30 min as indicated. To assess the effect of tryptamine on insulin signaling, 3T3-L1 cells were pre-treated with or without tryptamine, ERK inhibitor or TAAR1 antagonist EPPTB, and then treated with insulin at the indicated concentration. The effect of IAA on insulin signaling was evaluated by treating 3T3-L1 cells with or without IAA followed by insulin for the indicated times. Tryptamine, U0126 and EPPTB were dissolved in DMSO at 100 mM as a stock solution. For cAMP measurements, 3T3-L1 cells were pre-treated with or without EPPTB for 60 min and then treated with tryptamine for the indicated times.
(§2) Frozen tissues and harvested cells were lysed in RIPA buffer with a protease inhibitor cocktail. For western blotting, the cell lysates and tissue lysates were centrifuged at 15,000 rpm for 15 min at 4° C. The supernatant was mixed with 5× loading buffer and heated at 98° C. on a dry bath for 10 min. The target proteins were then detected in the samples as per manufacturer instructions. The blots were incubated with HRP-linked anti-rabbit IgG or anti-mouse IgG and reacted with enhanced chemiluminescence. The quantification of protein bands from western blots was analyzed using Image J.

[2] = Oral glucose tolerance test (OGTT) in mice; format: in vivo, mouse; conditions: for glucose tolerance in control mice (OGTT): control mice without tryptamine, inhibitor alone; for tryptamine-induced glucose intolerance (OGTT): tryptamine (10 mg/kg)-treated mice plus inhibitor i.p. (U0126 20 mg/kg, PD98059 10 mg/kg, EPPTB 10 mg/kg); for glucose tolerance (OGTT): normal mice, substance given alone (tryptamine 0.4, 2, 10 mg/kg; phenethylamine 1, 2, 5 mg/kg i.p.)
Method: (§3) For the oral glucose tolerance test (OGTT), mice were fasted for 12 hours (overnight) and administered with tryptamine, ERK inhibitors, TAAR1 antagonist or IAA at indicated dosages. After 30 min, mice were given glucose at a dosage of 2 g/kg. Blood samples were collected from the tail vein for glucose measurement using Accu-Chek glucose meters at 0, 15, 30, 60, 90 and 120 min after the glucose challenge. For the insulin tolerance test (ITT), mice were fasted for 4 hours and administered with tryptamine, ERK inhibitors or a TAAR1 antagonist at indicated dosages. After 30 min, insulin (1 U/kg) was injected intraperitoneally into the mice. Blood glucose levels were measured as per OGTT. For the measurement of serum insulin and TG, serum was collected 120 min after the mice were treated with tryptamine.

[3] = Insulin tolerance test (ITT) in mice; format: in vivo, mouse; conditions: for insulin sensitivity in control mice (ITT): control mice without tryptamine, inhibitor alone; for tryptamine-induced insulin resistance (ITT): tryptamine (10 mg/kg)-treated mice plus inhibitor i.p. (U0126 20 mg/kg, PD98059 10 mg/kg, EPPTB 10 mg/kg); for insulin sensitivity (ITT): normal mice, substance given alone (tryptamine 0.4, 2, 10 mg/kg; phenethylamine 1, 2, 5 mg/kg i.p.)
Method: as §3

[4] = system: insulin-induced Akt phosphorylation; assay: Western blot of insulin-stimulated AKT phosphorylation in WAT, liver and skeletal muscle lysates from mice; format: in vivo, mouse; conditions: insulin 1 U/kg; for inhibitory effects of tryptamine on insulin-stimulated AKT phosphorylation in tissues: tryptamine 10 mg/kg plus inhibitor (U0126 20 mg/kg or EPPTB 10 mg/kg), WAT and liver lysates; for insulin-induced Akt phosphorylation in major metabolic tissues: WAT, liver, skeletal muscle, tryptamine 10 mg/kg or phenethylamine 5 mg/kg i.p.
Method: as §2

ERK1/2 phosphorylation [5] = assay: Western blot of ERK activation in WAT, liver and skeletal muscle lysates from mice; format: in vivo, mouse; conditions: for tryptamine-induced ERK phosphorylation in tissues: tryptamine 10 mg/kg plus inhibitor (U0126 20 mg/kg or EPPTB 10 mg/kg), WAT and liver lysates
Method: as §2

ERK1/2 phosphorylation [6] = assay: Western blot of ERK activation in 3T3-L1 cells; format: cell-based; conditions: for ERK phosphorylation induced by tryptamine and phenethylamine: tryptamine or phenethylamine 25 μM, pre-treatment with inhibitor 20 μM; for ERK1/2 phosphorylation: 25 μM
Method: as §1, with “3T3-L1 adipocytes (ATCC CL-173) were cultured and maintained in DMEM with 10% (v/v) FBS. For the” for “For the”
as §2

Serum TG level in mice = format: in vivo, mouse; conditions: normal mice, i.p.
Method: as §3

[7] = Intravenous glucose tolerance test (IVGTT) in monkeys; format: in vivo, Macaca fascicularis; conditions: normal monkeys, single dose 10 mg/kg via oral gavage
[8] = Serum insulin level in monkeys; format: in vivo, Macaca fascicularis; conditions: normal monkeys, single dose 10 mg/kg via oral gavage
Method: The first crab-eating macaques (Macaca fascicularis) metabolomics study is performed with ethics approval (No. YMB1704) by Yunnan Yinmore Biotechnology company (Kunming, China). The diagnosis of diabetes for monkeys was based on published criteria. Specifically, age-matched (10-23 years old) monkeys were categorized as normal (Define as FBG<75 mg/dL and Hb1Ac<3.5%), pre-diabetes (FBG 80-130 mg/dL and Hb1Ac 4.0%-6.0%) and diabetes (FBG>130 mg/dL and Hb1Ac>6.0%) (n=26 for each group). Biological samples including serum and feces were collected and stored at −80° C. until analysis. The second crab-eating macaques (n=5) intervention study is performed with ethics approval (No. HZ2021047) by Huazhen Biosciences company (Guangzhou, China). Biochemical parameters including OGTT and serum insulin level were measured before and after tryptamine treatment. No crab-eating macaques were treated with anti-diabetic medication during these studies.
To understand the role of tryptamine and phenethylamine in the pathophysiology of insulin resistance, tryptamine and phenethylamine were administered to normal mice within the pathophysiological range detected in the fecal samples of T2D subjects. […]

3T3-L1 adipocytes = assay: Glucose uptake assay in 3T3-L1 cells; format: cell-based; conditions: 5, 10 and 25 μM
Method: as §1, with “3T3-L1 adipocytes (ATCC CL-173) were cultured and maintained in DMEM with 10% (v/v) FBS. For the” for “For the”

[9] = system: insulin signaling-related proteins; assay: Phospho-proteomics study of mouse tissue; format: in vivo; conditions: mice, insulin-sensitive tissues (WAT), tryptamine treatment
Method: Mice were fasted for 4 hours and orally administered with tryptamine or vehicle. The WAT tissues were collected for the phosphoproteomics study. Mice tissue samples used for the TMT-labeled phosphoproteomics study were prepared as previously reported. An Easy nLC system (Thermo Fisher Scientific) with an Acclaim PepMap RSLC column (50 μm×15 cm) was used to separate the TMT-labelled peptides. The mobile phase used in LC-MS-Orbitrap was A: water with 0.1% formic acid and B: 80% acetonitrile, 20% water with 0.1% formic acid. The elution gradient was set as 0-5 min in 0-6% buffer B, 5-45 min in 6-28% buffer B, 45-50 min in 28%-38% buffer B, 50-55 min 38-100% buffer B and maintained during […] in 100% buffer B. The obtained MS/MS spectra were processed by Proteome Discoverer (Thermo Fisher Scientific) and searched using MASCOT engine 2.6. All protein sequences were aligned to the Mus musculus database downloaded from UniProt (http://www.uniprot.org). The proteins with a fold change>1.2 or <0.8 and a p-value<0.05 were considered as differentially expressed proteins.

[10] = Tissue distribution of tryptamine; conditions: mice, oral gavage of tryptamine 5 mg/kg, within 15 min
Method: (§4) Tryptamine at a dosage of 5 mg/kg (dissolved in 0.5% CMC-Na) was orally administered to mice. After 15 min, mice were euthanized by isoflurane and sacrificed by cervical dislocation. Serum, liver, skeletal muscle and WAT were collected and stored at −80° C. until analysis. About 80 mg of biological tissues were extracted with a 20× volume of 70% methanol (m/v) and then homogenized with steel beads. The samples were then centrifuged at 14,000 rpm at 4° C. for 15 min. About 200 μL of the supernatant was transferred to new tubes for LC-MS analysis.

[11] = mouse, in vivo, 15 min
Method: as §4

[12] = antibiotics-treated mice colonized with R. gnavus ATCC 29149, EPPTB 10 mg/kg i.p.

## O=C(O)Cc1ccccc1 [phenylacetic acid]
[1]
  insulin-induced AKT phosphorylation: did not alter

## CCOc1cccc(NC(=O)c2ccc(N3CCCC3)c(C(F)(F)F)c2)c1 [EPPTB, N-(3-ethoxy-phenyl)-4-pyrrolidin-1-yl-3-trifluoromethyl-benzamide]
[2]; [12]
  R. gnavus-induced impaired glucose tolerance (OGTT): partially abrogated
[2]
  glucose tolerance in control mice (OGTT): did not affect
  tryptamine-induced glucose intolerance (OGTT): significantly reduced
[3]; [12]
  R. gnavus-induced lower insulin sensitivity (ITT): partially abrogated
[3]
  insulin sensitivity in control mice (ITT): did not affect
  tryptamine-induced insulin resistance (ITT): significantly reduced
[4]
  inhibitory effects of tryptamine on insulin-stimulated AKT phosphorylation in tissues: abolished the inhibitory effects
ERK1/2 phosphorylation [5]
  tryptamine-induced ERK phosphorylation in tissues: downregulated
[1]
  inhibitory effects of tryptamine and phenethylamine on insulin-stimulated AKT phosphorylation: reversed the inhibitory effects
ERK1/2 phosphorylation [6]
  ERK phosphorylation induced by tryptamine and phenethylamine: significantly downregulated

## NCCc1ccccc1 [phenethylamine]
[2]
  glucose tolerance (OGTT): remarkably inhibitory effects
[3]
  insulin sensitivity (ITT): remarkably inhibitory effects
[4]
  insulin-induced Akt phosphorylation in major metabolic tissues: significantly suppressed
Serum TG level in mice
  serum TG levels: significant elevation
[1]
  insulin signaling: inhibited insulin signaling in a time-dependent manner
ERK1/2 phosphorylation [6]
  ERK1/2 phosphorylation: induced ERK1/2 phosphorylation in a time-dependent manner

## NCCc1c[nH]c2ccccc12 [tryptamine]
[2]
  glucose tolerance (OGTT): remarkably inhibitory effects
[3]
  insulin sensitivity (ITT): remarkably inhibitory effects
[4]
  insulin-induced Akt phosphorylation in major metabolic tissues: significantly suppressed
ERK1/2 phosphorylation [5]; tryptamine 10 mg/kg i.p., WAT, liver, skeletal muscle
  ERK1/2 phosphorylation in insulin-sensitive tissues: upregulated
Serum TG level in mice
  serum TG levels: significant elevation
[7]
  blood glucose levels in the glucose challenge (IVGTT): higher blood glucose levels
[8]
  serum insulin levels: significant elevation
[1]
  insulin signaling: inhibited insulin signaling in a time-dependent manner
ERK1/2 phosphorylation [6]
  ERK1/2 phosphorylation: induced ERK1/2 phosphorylation in a time-dependent manner
3T3-L1 adipocytes
  basal glucose uptake: inhibited basal glucose uptake in a dose-dependent manner
[9]
  insulin signaling-related phospho-proteins (HSL, ERK, SH3D5): upregulated
[10]
  metabolite indole-3-acetic acid (IAA) levels in serum and insulin-sensitive tissues: significantly increased
[10]; serum, WAT, liver, skeletal muscle
  tryptamine levels in serum and insulin-sensitive tissues: significantly increased

## N[C@@H](Cc1c[nH]c2ccccc12)C(=O)O [tryptophan]
[1]
  insulin-induced AKT phosphorylation: did not alter

## N#CC(=C(/N)Sc1ccccc1N)/C(C#N)=C(\N)Sc1ccccc1N [U0126]
[2]
  glucose tolerance in control mice (OGTT): negligible effects
  tryptamine-induced glucose intolerance (OGTT): significantly improved
[3]
  insulin sensitivity in control mice (ITT): negligible effects
  tryptamine-induced insulin resistance (ITT): significantly improved
[4]
  inhibitory effects of tryptamine on insulin-stimulated AKT phosphorylation in tissues: abolished the inhibitory effects
ERK1/2 phosphorylation [5]
  tryptamine-induced ERK phosphorylation in tissues: significantly downregulated
[1]
  inhibitory effects of tryptamine and phenethylamine on insulin-stimulated AKT phosphorylation: significantly suppressed the inhibitory effects
ERK1/2 phosphorylation [6]
  ERK phosphorylation induced by tryptamine and phenethylamine: blocked

## COc1cccc(-c2cc(=O)c3ccccc3o2)c1N [PD98059]
[2]
  glucose tolerance in control mice (OGTT): negligible effects
  tryptamine-induced glucose intolerance (OGTT): significantly improved
[3]
  insulin sensitivity in control mice (ITT): negligible effects
  tryptamine-induced insulin resistance (ITT): significantly improved

## N[C@@H](Cc1ccccc1)C(=O)O [phenylalanine]
[1]
  insulin-induced AKT phosphorylation: did not alter

## O=C(O)Cc1c[nH]c2ccccc12 [indole-3-acetic acid]
[2]
  glucose tolerance (OGTT): did not impair
[3]
  insulin sensitivity (ITT): did not impair
[1]
  insulin-induced AKT phosphorylation: did not alter
[11]
  IAA concentration relative to that of tryptamine in serum: 40-100 fold
